Experiments:
Format in all cases: in vivo
[1] = system: annual bluegrass, Poa annua (POANN); experiment: Postemergent weed control field study, Pennsylvania 2004, POANN; details: g ai/Ha: penoxsulam 35, imazaquin 104, bispyribac-sodium 75, trifloxysulfuron-sodium 9.2, metsulfuron-methyl 10.4; for Percent Weed Control POANN 29DAA: 29 Days After Application; for Percent Weed Control POANN 56DAA: 56 Days After Application
Text: (§1) The ALS inhibiting herbicides are useful in controlling broadleaf weeds and sedges in turfgrass. They are particularly effective against most important weeds in this application, viz., white clover, Trifolium repens L. (TRFRE); buckhorn plantain, Plantago lanceolata L. (PLALA); dandelion, Taraxacum officinale (TAROF); broadleaf plantain, Plantago major L. (PLAMA); ground ivy, Glechoma hederacea L. (GLEHE); common lespedeza, Lespedeza striata (LESST); pennywort (dollarweed), Hydrocotyle spp (HYDSS); Virginia buttonweed, Diodia virginiana L. (DIQVI) English daisy, Bellis perennis L. (BELPE); annual bluegrass, Poa annua (POANN); and yellow nutsedge, Cypres esculentus L. (CYPES).
(§2) Field studies were conducted in established turfgrass sites containing a natural population of target broadleaf weeds. Replicated trials, containing a minimum of three replications and having individual plots ranging in size from 25 to 50 ft. sq (2.3 to 4.6 square meters), were initiated in the late spring when turf and weeds were actively growing. Granule treatments were uniformly applied to individual plots using a common hand-shaker method. Applications were made in the early morning when dew was present. Natural rainfall and supplemental irrigation were used to maintain healthy turf and active weed growth throughout the study period. Control of each weed species in the study site was made at approximately 2, 4 and 8 weeks after treatment. Control was determined visually by comparing treated and untreated weeds and scored on a 0 to 100 percent scale where 0 corresponds to no control and 100 corresponds to complete kill.

[2] = system: dandelion, Taraxacum officinale (TAROF); experiment: Postemergent weed control field study, Pennsylvania 2004, TAROF; details: Liquid formulation, g ai/Ha: penoxsulam 35, imazaquin 104, bispyribac-sodium 75, trifloxysulfuron-sodium 9.2, metsulfuron-methyl 10.4; for Percent Weed Control TAROF 29DAA: 29 Days After Application; for Percent Weed Control TAROF 56DAA: 56 Days After Application
[3] = system: perennial ryegrass; experiment: Turf tolerance field study, perennial ryegrass, Indiana 2004; details: 21 Days After Treatment, g ai/Ha: penoxsulam 35, imazaquin 104, bispyribac-sodium 75, trifloxysulfuron-sodium 9.2, metsulfuron-methyl 10.4; for Color: 0 = brown to dead turf, 10 = lush green; for Injury: 0 = no visible injury, 10 = dead turf
Experimental: (§3) Turf tolerance studies were conducted in monoculture stands of perennial ryegrass and tall fescue. Replicated trials, containing a minimum of three replications and having individual plots ranging in size from 25 to 50 ft. sq (2.3 to 4.6 square meters), were initiated in the late spring when turf was actively growing. […] Natural rainfall and supplemental irrigation, fertilizer, fungicides and insecticides were used to maintain healthy turf throughout the study period. Turf tolerance evaluations were made weekly for 8 weeks after application. Evaluations compared treated and untreated plot areas and consisted of one or all of the following evaluations: 1) visual estimate of turf injury made on a 0 to 10 scale with 0 indicating no visible injury symptoms, 10 being dead turf and 3 or less being commercially acceptable; 2) visual estimate of turf color made on a 0 to 10 scale with 0 being brown to dead turf, 10 being a lush green turf of highest quality and 6.5 being commercially acceptable; 3) visual estimate of turf density made on a 0 to 100 scale with 0 being bare ground, 100 being a thick solid stand of highest quality and 90 percent density being commercially acceptable; 4) visual estimate of turf quality made on a 0 to 10 scale with 0 being brown to dead turf, 10 being a lush green turf of highest quality and 6.5 being commercially acceptable.

[4] = system: tall fescue; experiment: Turf tolerance field study, tall fescue, Indiana 2004; details: 14 Days After Treatment, g ai/Ha: penoxsulam 35, imazaquin 104, bispyribac-sodium 75, trifloxysulfuron-sodium 9.2, metsulfuron-methyl 10.4; for Color: 0 = brown to dead turf, 10 = lush green; for Injury: 0 = no visible injury, 10 = dead turf
Experimental: as §3

[5] = system: buckhorn plantain, Plantago lanceolata L. (PLALA); experiment: Postemergent weed control field study, Pennsylvania 2004, PLALA; details: g ai/Ha: penoxsulam 35, imazaquin 104, bispyribac-sodium 75, trifloxysulfuron-sodium 9.2, metsulfuron-methyl 10.4; for Percent Weed Control PLALA 29DAA: 29 Days After Application; for Percent Weed Control PLALA 56DAA: 56 Days After Application
Text: as §1
as §2, with “Granule treatments were uniformly applied to individual plots using a common hand-shaker method.” left out

[6] = system: perennial ryegrass; experiment: Perennial ryegrass turf quality field study, Pennsylvania 2004; details: in vivo
Experimental: as §3

[7] = system: white clover, Trifolium repens L. (TRFRE); experiment: Postemergent weed control field study, Pennsylvania 2004, TRFRE; details: g ai/Ha: penoxsulam 35, imazaquin 104, bispyribac-sodium 75, trifloxysulfuron-sodium 9.2, metsulfuron-methyl 10.4; for Percent Weed Control TRFRE 29DAA: 29 Days After Application; for Percent Weed Control TRFRE 56DAA: 56 Days After Application
Text: as §1
as §2, with “Granule treatments were uniformly applied to individual plots using a common hand-shaker method.” left out

[8] = system: dandelion, Taraxacum officinale (TAROF); experiment: Postemergent weed control field study, Pennsylvania 2004, TAROF; details: Granule formulation, g ai/Ha: penoxsulam 35, imazaquin 104, bispyribac-sodium 75, trifloxysulfuron-sodium 9.2, metsulfuron-methyl 10.4; for Percent Weed Control TAROF 29DAA: 29 Days After Application; for Percent Weed Control TAROF 56DAA: 56 Days After Application
Text: as §1, §2

Structure (SMILES)	Percent Weed Control POANN 29DAA ([1]; Granule formulation) [%]	Percent Weed Control POANN 56DAA ([1]; Granule formulation) [%]	Percent Weed Control POANN 29DAA ([1]; Liquid formulation) [%]	Percent Weed Control POANN 56DAA ([1]; Liquid formulation) [%]	Percent Weed Control TAROF 29DAA [2] [%]	Percent Weed Control TAROF 56DAA [2] [%]	Color ([3]; Granule formulation)	Injury ([3]; Granule formulation)	Color ([3]; Liquid formulation)	Injury ([3]; Liquid formulation)	Color ([4]; Granule formulation)	Injury ([4]; Granule formulation)	Color ([4]; Liquid formulation)	Injury ([4]; Liquid formulation)	Percent Weed Control PLALA 29DAA ([5]; Granule formulation) [%]	Percent Weed Control PLALA 56DAA ([5]; Granule formulation) [%]	Percent Weed Control PLALA 29DAA ([5]; Liquid formulation) [%]	Percent Weed Control PLALA 56DAA ([5]; Liquid formulation) [%]	Turf Quality 36 DAA [6]	Percent Weed Control TRFRE 29DAA ([7]; Granule formulation) [%]	other results
COc1cnc(OC)n2nc(NS(=O)(=O)c3c(OCC(F)F)cccc3C(F)(F)F)nc12 [Penoxsulam, penoxsulam]	0.0	13.7	4.4	31.1	44.4	11.1	8.3 0-10 Scale	1.5 0-10 Scale	6.5 0-10 Scale	4.3 0-10 Scale	9.0 0-10 Scale	0.3 0-10 Scale	7.8 0-10 Scale	3.0 0-10 Scale	73.3	43.3	41.7	70.6	10.0 0 to 10 scale	98.3	Percent Weed Control TRFRE 56DAA ([7]; Granule formulation): 83.9%; Percent Weed Control TRFRE 29DAA ([7]; Liquid formulation): 100.0%; Percent Weed Control TRFRE 56DAA ([7]; Liquid formulation): 98.7%; Percent Weed Control TAROF 29DAA [8]: 57.8%; Percent Weed Control TAROF 56DAA [8]: 34.4%
COC(=O)c1ccccc1S(=O)(=O)NC(=O)Nc1nc(C)nc(OC)n1 [Metsulfuron-methyl, metsulfuron-methyl]	32.2	31.1	39.2	17.5	99.1	97.4	6.5 0-10 Scale	4.5 0-10 Scale	6.0 0-10 Scale	6.0 0-10 Scale	8.8 0-10 Scale	0.8 0-10 Scale	6.8 0-10 Scale	4.3 0-10 Scale	58.3	85.0	97.7	78.9	8.3 0 to 10 scale	93.9	Percent Weed Control TRFRE 56DAA ([7]; Granule formulation): 93.9%; Percent Weed Control TRFRE 29DAA ([7]; Liquid formulation): 95.8%; Percent Weed Control TRFRE 56DAA ([7]; Liquid formulation): 100.0%; Percent Weed Control TAROF 29DAA [8]: 87.2%; Percent Weed Control TAROF 56DAA [8]: 67.2%

Source: US7799343B2, “Safer control of broadleaf weeds in turf with granular formulations of ALS inhibiting herbicides” (priority 2006, dated 2010)
